These results are taken from patent US20120016010A1, “RNA Interference Mediated Inhibition of BTB and CNC Homology 1, Basic Leucine Zipper Transcription Factor 1 (BACH1) Gene Expression Using Short Interfering Nucleic Acid (siNA)” (Merck Sharp & Dohme Corp, priority 2009, published 2012).

The series deals with Male CD rats. The note with it: rat, in vivo, 10 mg/kg. The protocol:
Male CD rats were anaesthetised and intra-tracheally dosed with 200 ul of either vehicle, Poly I:C (1 mg/kg) or siNA (10 mg/kg). 24 hours later the rats were euthanized and the lungs lavaged 3 times with 5 ml of heparinised PBS. Total and differential cell counts as well as cytokine analysis were performed on the lung lavage fluid.
In the case of “29947-DC (sense GGAAUCCUGCUUUCAGUUUTT; antisense AAACUGAAAGCAGGAUUCCUU; inverted abasic caps (B), 2'-modified nucleotides, further chemistry not given here)”, the cytokine production entry is on record as “no significant increases”; the “inflammatory cell (neutrophils and macrophages) influx” value (“inflammatory cell” below) is “no significant increases”.
“29961-DC (sense CUACACUGCUAAACUGAUUTT; antisense AAUCAGUUUAGCAGUGUAGUU; inverted abasic end caps, TT overhangs, modified nucleotides, further chemistry not given here)”: the cytokine production result was “no significant increases”; the “inflammatory cell” value is reported as “no significant increases”.
For “29964-DC (sense GAUUUGCAGGUGAUGUUAATT; antisense UUAACAUCACCUGCAAAUCUU; inverted abasic end caps, TT overhangs, modified nucleotides, further chemistry not given here)”, the cytokine production result was “no significant increases”; the “inflammatory cell” value is reported as “no significant increases”.
For “29988-DC (sense AUUUGAACCUUUAAUUCAGTT; antisense CUGAAUUAAAGGUUCAAAUUU; inverted abasic end caps, TT overhangs, modified nucleotides, further chemistry not given here)”, the cytokine production entry was “no significant increases”; the “inflammatory cell” value is reported as “no significant increases”.
